Measurements: ChEMBL document CHEMBL4813977, “Discovery of potent colony-stimulating factor 1 receptor inhibitors by replacement of hinge-binder moieties” (Eur J Med Chem, 2021)
Calls of active or inactive are those of the source. No cut-off for these calls is given here.

Legend:
[1] = molecular target: T1, Macrophage colony-stimulating factor 1 receptor (Mus musculus) (UniProt P09581); assay: Inhibition of CSF1R phosphorylation in mouse RAW 264.7 cells at 10 to 100 nM preincubated for 5 hrs followed by CSF stimulation for 10 mins by Western blot analysis; type: cell-based; conditions: RAW264.7, dose 10-100 nM, time 310.0 min
T1 sequence (whole entry): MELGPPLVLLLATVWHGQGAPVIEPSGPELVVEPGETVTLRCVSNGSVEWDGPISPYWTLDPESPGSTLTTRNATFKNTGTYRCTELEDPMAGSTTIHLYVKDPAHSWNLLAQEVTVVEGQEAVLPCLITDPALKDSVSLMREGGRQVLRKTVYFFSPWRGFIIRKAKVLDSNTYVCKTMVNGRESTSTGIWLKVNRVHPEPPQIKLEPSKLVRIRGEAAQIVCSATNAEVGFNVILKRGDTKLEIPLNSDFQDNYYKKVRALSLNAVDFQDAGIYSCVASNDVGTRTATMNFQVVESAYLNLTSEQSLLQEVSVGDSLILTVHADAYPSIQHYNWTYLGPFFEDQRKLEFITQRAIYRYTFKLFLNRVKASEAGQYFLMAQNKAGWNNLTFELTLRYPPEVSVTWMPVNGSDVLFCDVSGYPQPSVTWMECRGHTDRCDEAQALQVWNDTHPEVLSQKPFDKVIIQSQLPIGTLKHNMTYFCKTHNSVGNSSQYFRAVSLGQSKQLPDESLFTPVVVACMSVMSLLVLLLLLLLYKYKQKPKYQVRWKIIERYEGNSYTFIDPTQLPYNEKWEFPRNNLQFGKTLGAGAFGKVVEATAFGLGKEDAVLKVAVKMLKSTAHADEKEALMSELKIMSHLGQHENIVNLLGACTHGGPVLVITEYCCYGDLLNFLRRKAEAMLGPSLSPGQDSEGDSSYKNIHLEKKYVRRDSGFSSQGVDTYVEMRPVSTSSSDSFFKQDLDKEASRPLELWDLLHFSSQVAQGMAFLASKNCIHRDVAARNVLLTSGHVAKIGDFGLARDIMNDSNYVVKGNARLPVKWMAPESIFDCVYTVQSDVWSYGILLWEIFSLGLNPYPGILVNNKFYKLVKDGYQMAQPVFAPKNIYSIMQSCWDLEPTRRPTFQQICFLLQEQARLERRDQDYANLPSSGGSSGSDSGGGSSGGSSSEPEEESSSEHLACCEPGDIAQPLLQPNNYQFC

[2] = molecular target: Mast/stem cell growth factor receptor Kit (Homo sapiens) (UniProt P10721); conditions: dose 10.0 nM
Description: Inhibition of human c-KIT at 10 nM using poly[Glu:Tyr] (4:1) as substrate in presence of [gamma-33P]-ATP by radiometric assay relative to control

[3] = molecular target: Mast/stem cell growth factor receptor Kit (Homo sapiens) (UniProt P10721); conditions: dose 100.0 nM
Description: Inhibition of human c-KIT at 100 nM using poly[Glu:Tyr] (4:1) as substrate in presence of [gamma-33P]-ATP by radiometric assay relative to control

[4] = molecular target: Receptor-type tyrosine-protein kinase FLT3 (Homo sapiens) (UniProt P36888); conditions: dose 10.0 nM
[5] = molecular target: Receptor-type tyrosine-protein kinase FLT3 (Homo sapiens) (UniProt P36888); conditions: dose 100.0 nM
[6] = molecular target: Macrophage colony-stimulating factor 1 receptor (Homo sapiens) (UniProt P07333); conditions: dose 10.0 nM
Description: Inhibition of human CSF1R at 10 nM using poly[Glu:Tyr] (4:1) as substrate in presence of [gamma-33P]-ATP by radiometric assay relative to control

[7] = molecular target: Macrophage colony-stimulating factor 1 receptor (Homo sapiens) (UniProt P07333); conditions: dose 100.0 nM
Description: Inhibition of human CSF1R at 100 nM using poly[Glu:Tyr] (4:1) as substrate in presence of [gamma-33P]-ATP by radiometric assay relative to control

Chain of Receptor-type tyrosine-protein kinase FLT3 (Homo sapiens) (P36888 whole entry): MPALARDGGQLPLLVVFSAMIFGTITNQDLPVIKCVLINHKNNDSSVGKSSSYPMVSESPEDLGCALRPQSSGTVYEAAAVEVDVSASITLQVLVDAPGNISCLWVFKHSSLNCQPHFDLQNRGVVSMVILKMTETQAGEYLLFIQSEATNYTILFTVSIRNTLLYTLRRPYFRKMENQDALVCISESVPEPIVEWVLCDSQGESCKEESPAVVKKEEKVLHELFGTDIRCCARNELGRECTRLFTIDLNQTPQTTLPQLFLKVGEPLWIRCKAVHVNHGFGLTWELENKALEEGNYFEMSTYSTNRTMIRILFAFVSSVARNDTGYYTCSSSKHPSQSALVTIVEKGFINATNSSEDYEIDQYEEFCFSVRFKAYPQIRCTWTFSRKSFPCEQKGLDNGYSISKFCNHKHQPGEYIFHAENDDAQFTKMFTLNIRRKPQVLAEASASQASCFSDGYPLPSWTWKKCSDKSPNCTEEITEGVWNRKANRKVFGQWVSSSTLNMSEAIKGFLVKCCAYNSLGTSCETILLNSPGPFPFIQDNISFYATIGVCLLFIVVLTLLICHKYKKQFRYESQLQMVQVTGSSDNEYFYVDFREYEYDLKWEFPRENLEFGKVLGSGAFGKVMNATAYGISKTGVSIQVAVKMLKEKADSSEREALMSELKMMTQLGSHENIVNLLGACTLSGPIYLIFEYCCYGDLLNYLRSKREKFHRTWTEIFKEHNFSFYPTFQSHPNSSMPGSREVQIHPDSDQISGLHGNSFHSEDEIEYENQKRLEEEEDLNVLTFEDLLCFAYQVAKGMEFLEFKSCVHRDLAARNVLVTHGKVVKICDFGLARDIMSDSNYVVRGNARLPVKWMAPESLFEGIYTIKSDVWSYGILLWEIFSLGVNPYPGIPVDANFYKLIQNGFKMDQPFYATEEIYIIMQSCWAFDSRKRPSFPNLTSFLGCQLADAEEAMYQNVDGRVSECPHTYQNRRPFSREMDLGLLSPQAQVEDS
Chain of Mast/stem cell growth factor receptor Kit (Homo sapiens) (P10721 whole entry): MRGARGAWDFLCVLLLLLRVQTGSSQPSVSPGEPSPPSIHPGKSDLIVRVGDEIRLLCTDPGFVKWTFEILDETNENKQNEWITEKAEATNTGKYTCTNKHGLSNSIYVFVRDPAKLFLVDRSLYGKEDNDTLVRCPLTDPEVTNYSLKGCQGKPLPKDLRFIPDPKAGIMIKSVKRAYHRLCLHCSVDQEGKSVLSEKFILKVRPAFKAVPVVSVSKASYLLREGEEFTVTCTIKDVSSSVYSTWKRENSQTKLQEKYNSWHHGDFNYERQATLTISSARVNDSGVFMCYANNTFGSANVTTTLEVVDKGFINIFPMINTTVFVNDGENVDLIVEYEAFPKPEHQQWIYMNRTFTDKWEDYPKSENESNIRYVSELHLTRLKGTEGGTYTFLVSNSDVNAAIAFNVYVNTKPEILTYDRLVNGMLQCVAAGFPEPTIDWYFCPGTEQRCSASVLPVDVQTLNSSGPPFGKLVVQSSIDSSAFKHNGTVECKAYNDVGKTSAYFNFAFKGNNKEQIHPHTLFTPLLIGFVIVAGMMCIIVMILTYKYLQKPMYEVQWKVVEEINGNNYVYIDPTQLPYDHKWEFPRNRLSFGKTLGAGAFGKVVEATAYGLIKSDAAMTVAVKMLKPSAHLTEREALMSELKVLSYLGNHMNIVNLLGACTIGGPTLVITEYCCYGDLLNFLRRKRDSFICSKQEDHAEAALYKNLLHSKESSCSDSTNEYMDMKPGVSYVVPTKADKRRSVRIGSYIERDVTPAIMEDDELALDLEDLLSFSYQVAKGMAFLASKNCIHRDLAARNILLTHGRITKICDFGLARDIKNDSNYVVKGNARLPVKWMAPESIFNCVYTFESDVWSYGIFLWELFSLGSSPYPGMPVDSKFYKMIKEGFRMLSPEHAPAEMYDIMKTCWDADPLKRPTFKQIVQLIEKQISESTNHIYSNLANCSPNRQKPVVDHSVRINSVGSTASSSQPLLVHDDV
Chain of Macrophage colony-stimulating factor 1 receptor (Homo sapiens) (P07333 whole entry): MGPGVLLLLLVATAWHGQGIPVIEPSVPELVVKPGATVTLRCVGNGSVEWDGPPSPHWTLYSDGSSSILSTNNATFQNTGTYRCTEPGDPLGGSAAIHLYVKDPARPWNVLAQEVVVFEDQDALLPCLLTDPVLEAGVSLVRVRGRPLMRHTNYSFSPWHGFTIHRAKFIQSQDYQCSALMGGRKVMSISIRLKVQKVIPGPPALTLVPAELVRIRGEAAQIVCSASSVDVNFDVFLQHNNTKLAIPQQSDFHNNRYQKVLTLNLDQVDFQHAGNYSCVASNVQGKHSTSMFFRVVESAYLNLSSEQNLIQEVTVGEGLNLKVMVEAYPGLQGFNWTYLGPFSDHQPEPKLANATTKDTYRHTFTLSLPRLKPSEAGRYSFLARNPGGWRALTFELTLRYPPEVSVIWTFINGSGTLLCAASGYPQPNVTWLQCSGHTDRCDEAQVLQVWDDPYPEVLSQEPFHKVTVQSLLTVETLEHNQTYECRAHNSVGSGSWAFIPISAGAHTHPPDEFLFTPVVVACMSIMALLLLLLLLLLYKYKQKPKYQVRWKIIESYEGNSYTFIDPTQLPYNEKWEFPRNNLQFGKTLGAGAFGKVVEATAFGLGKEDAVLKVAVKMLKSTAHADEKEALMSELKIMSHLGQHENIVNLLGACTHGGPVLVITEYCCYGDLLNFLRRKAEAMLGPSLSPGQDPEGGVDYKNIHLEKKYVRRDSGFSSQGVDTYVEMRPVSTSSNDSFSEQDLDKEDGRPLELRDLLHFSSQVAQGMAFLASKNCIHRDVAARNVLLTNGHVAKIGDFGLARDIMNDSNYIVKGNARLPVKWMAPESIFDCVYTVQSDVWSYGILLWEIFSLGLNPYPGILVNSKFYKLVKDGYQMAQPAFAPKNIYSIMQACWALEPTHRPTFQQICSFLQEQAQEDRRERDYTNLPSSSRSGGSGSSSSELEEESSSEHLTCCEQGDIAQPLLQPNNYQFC

Row | SMILES | inhibition [1] | inhibition [2] | inhibition [3] | inhibition [4] | inhibition [5] | inhibition [6] | inhibition [7]
1 | Cc1ccc(NC(=O)c2ccc(C(F)(F)F)nc2)cc1NC(=O)c1cnn2ccccc12 | Active | 30% | 53% | – | – | – | –
2 | CCN1CCN(Cc2ccc(C(=O)Nc3ccc(C)c(NC(=O)c4ncc[nH]4)c3)cc2C(F)(F)F)CC1 | – | 31% | 81% | – | – | – | –
3 | Cc1cn(-c2cc(NC(=O)c3ccc(C)c(NC(=O)c4cnc5ccccn45)c3)cc(C(F)(F)F)c2)cn1 | – | 0% | 33% | – | – | – | –
4 | CCN1CCN(Cc2ccc(C(=O)Nc3ccc(C)c(NC(=O)c4c[nH]cn4)c3)cc2C(F)(F)F)CC1 | – | 41% | 89% | – | – | – | –
5 | Cc1cn(-c2cc(NC(=O)c3ccc(C)c(NC(=O)c4cnc5cccnn45)c3)cc(C(F)(F)F)c2)cn1 | – | 7% | 50% | – | – | – | –
6 | Cc1ccc(NC(=O)c2ccc(C(F)(F)F)nc2)cc1NC(=O)c1cnc2cccnn12 | – | 4% | 32% | – | – | – | –
7 | Cc1ccc(NCc2ccc(C(F)(F)F)nc2)cc1NC(=O)c1cnn2ccccc12 | – | 17% | 45% | – | – | – | –
8 | Cc1ccc(NCc2ccc(C(F)(F)F)nc2)cc1NC(=O)c1cnc2cccnn12 | – | 6% | 25% | – | – | – | –
9 | CCN1CCN(Cc2ccc(C(=O)Nc3ccc(C)c(NC(=O)c4cnc5ncccn45)c3)cc2C(F)(F)F)CC1 | – | 10% | 49% | – | – | – | –
10 | CCN1CCN(Cc2ccc(C(=O)Nc3ccc(C)c(NC(=O)c4n[nH]c5ccccc45)c3)cc2C(F)(F)F)CC1 | – | 43% | 89% | – | – | – | –
11 | Cc1cn(-c2cc(NC(=O)c3ccc(C)c(Nc4nccc(-c5cccnc5)n4)c3)cc(C(F)(F)F)c2)cn1 | – | 2% | 33% | 0% | 4% | 14% | –
12 | CCN1CCN(Cc2ccc(C(=O)Nc3ccc(C)c(NC(=O)c4cnn5ccccc45)c3)cc2C(F)(F)F)CC1 | – | 27% | 73% | – | – | – | –
13 | CCN1CCN(Cc2ccc(C(=O)Nc3ccc(C)c(NCc4cnc5cccnn45)c3)cc2C(F)(F)F)CC1 | – | 22% | 49% | – | – | – | –
14 | Cc1ccc(NCc2ccc(C(F)(F)F)nc2)cc1NC(=O)c1cnc2ccccn12 | – | 14% | 56% | – | – | – | –
15 | CCN1CCN(Cc2ccc(C(=O)Nc3ccc(C)c(NC(=O)c4ccn(C)n4)c3)cc2C(F)(F)F)CC1 | – | 14% | 54% | – | – | – | –
16 | CCN1CCN(Cc2ccc(C(=O)Nc3ccc(C)c(NCc4cnc5ccc(OC)nn45)c3)cc2C(F)(F)F)CC1 | – | 25% | 63% | – | – | – | –
17 | COc1ccc(COc2ccc(Cc3cnc(N)nc3N)cc2OC)cc1 | – | 4% | 8% | 4% | 11% | – | –
18 | CCN1CCN(Cc2ccc(C(=O)Nc3ccc(C)c(NC(=O)c4cc[nH]n4)c3)cc2C(F)(F)F)CC1 | – | 0% | 17% | – | – | – | –
19 | CCN1CCN(Cc2ccc(C(=O)Nc3ccc(C)c(NC(=O)c4n[nH]c5ncccc45)c3)cc2C(F)(F)F)CC1 | – | 96% | 98% | – | – | – | –
20 | FC(F)(F)c1ccc(CNc2ccc(Cc3c[nH]c4ncc(Cl)cc34)cn2)cn1 | – | 13% | 51% | 1% | 11% | – | –
21 | CCN1CCN(Cc2ccc(C(=O)Nc3ccc(C)c(NC(=O)c4cnc5ccccn45)c3)cc2C(F)(F)F)CC1 | – | 30% | 70% | – | – | – | –
22 | CCN1CCN(Cc2ccc(NC(=O)c3ccc(C)c(NC(=O)c4cnc5cccnn45)c3)cc2C(F)(F)F)CC1 | – | 96% | 98% | – | – | – | –
23 | CNC(=O)c1cc(Oc2ccc3nc(N[C@H]4CCCC[C@H]4O)sc3c2)ccn1 | – | 2% | 2% | 19% | 20% | 76% | 94%
24 | CCN1CCN(Cc2ccc(C(=O)Nc3ccc(C)c(NC(=O)c4cnc5cccnn45)c3)cc2C(F)(F)F)CC1 | – | 27% | 64% | – | – | – | –
25 | CCN1CCN(Cc2ccc(C(=O)Nc3ccc(C)c(NC(=O)c4cnnc5ccccc45)c3)cc2C(F)(F)F)CC1 | – | 10% | 40% | – | – | – | –
